How the values were obtained:
Assay in all cases: relative viability (nuclei count vs DMSO), 5 days (fraction); higher = more cells survive
NPK76-II-72-1 + AZD7762 = compound: CC1CC(=O)N(C2=CN=C(N=C2N1C3CCCC3)NC4=C(C=C(C=C4)C(=O)NC5CCN(CC5)C)OC)C [NPK76-II-72-1] + NC(=O)Nc1cc(-c2cccc(F)c2)sc1C(=O)N[C@H]1CCCNC1 [AZD7762] (partner 0.2 µM)
Method in brief: (§1)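 Medians of duplicate plates are given as relative viability. That measure is the nuclei count in treated wells divided by the count in vehicle wells. Counts were taken on 4× images of lung cancer cell lines in 1536-well plates, 5 days after pin-tool dosing the day after seeding with one drug alone or a fixed anchor-drug dose plus five library-drug doses (not always all listed) in √10 steps.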

BI-2536 + Phenformin = compound: CC[C@@H]1C(=O)N(C)c2cnc(Nc3ccc(C(=O)NC4CCN(C)CC4)cc3OC)nc2N1C1CCCC1 [BI-2536] + N=C(N)NC(=N)NCCc1ccccc1 [Phenformin] (partner 250 µM)
Method in brief: as §1

[1] = compound: CC1CC(=O)N(C2=CN=C(N=C2N1C3CCCC3)NC4=C(C=C(C=C4)C(=O)NC5CCN(CC5)C)OC)C [NPK76-II-72-1] + CS(=O)(=O)N1CCN(Cc2cc3nc(-c4cccc5[nH]ncc45)nc(N4CCOCC4)c3s2)CC1 [Pictilisib] (partner 1 µM)
Method in brief: as §1

[2] = compound: CC1CC(=O)N(C2=CN=C(N=C2N1C3CCCC3)NC4=C(C=C(C=C4)C(=O)NC5CCN(CC5)C)OC)C [NPK76-II-72-1] + CC(=O)Nc1cccc(-n2c(=O)n(C3CC3)c(=O)c3c(Nc4ccc(I)cc4F)n(C)c(=O)c(C)c32)c1 [Trametinib] (partner 0.02 µM)
Method in brief: as §1

Cell Line	relative viability (NPK76-II-72-1 + AZD7762; first compound 0.01 µM)	relative viability (NPK76-II-72-1 + AZD7762; first compound 0.03162 µM)	relative viability (NPK76-II-72-1 + AZD7762; first compound 0.1 µM)	relative viability (NPK76-II-72-1 + AZD7762; first compound 0.3162 µM)	relative viability (NPK76-II-72-1 + AZD7762; first compound 1 µM)	relative viability (BI-2536 + Phenformin; first compound 0.01 µM)	relative viability (BI-2536 + Phenformin; first compound 0.03162 µM)	relative viability (BI-2536 + Phenformin; first compound 0.1 µM)	relative viability (BI-2536 + Phenformin; first compound 0.3162 µM)	relative viability (BI-2536 + Phenformin; first compound 1 µM)	relative viability ([1]; first compound 0.01 µM)	relative viability ([1]; first compound 0.03162 µM)	relative viability ([1]; first compound 0.1 µM)	relative viability ([1]; first compound 0.3162 µM)	relative viability ([1]; first compound 1 µM)	relative viability ([2]; first compound 0.01 µM)	relative viability ([2]; first compound 0.03162 µM)	relative viability ([2]; first compound 0.1 µM)	relative viability ([2]; first compound 0.3162 µM)	relative viability ([2]; first compound 1 µM)
NCI-H838	0.826	0.961	0.947	0.912	0.976	0.571	0.329	0.116	0.116	0.105	0.37	0.481	0.47	0.435	0.432	0.485	0.575	0.513	0.523	0.578
NCI-H1755	0.356	0.468	0.431	0.464	0.436	0.603	0.578	0.328	0.237	0.253	0.369	0.462	0.397	0.432	0.422	0.756	0.752	0.75	0.752	0.799
HCC-78	0.634	0.574	0.593	0.521	0.755	0.74	0.721	0.636	0.315	0.197	–	0.233	0.207	–	0.182	0.711	0.704	0.575	0.828	0.742
IA-LM	–	–	–	–	–	–	–	–	–	–	0.314	0.363	0.33	0.243	0.334	–	–	–	–	–
NCI-H322M	0.532	0.504	0.52	0.655	0.52	0.76	0.725	0.497	0.341	0.251	0.45	0.573	0.513	0.576	0.513	0.531	0.492	0.472	0.483	0.557
COR-L23	–	–	–	–	–	0.434	0.371	0.116	0.0966	0.0886	0.742	0.895	0.831	0.763	0.869	0.588	0.679	0.671	0.497	0.65
NCI-H2023	–	–	–	–	–	0.406	0.408	0.119	0.0985	0.0823	0.264	0.227	0.244	0.257	0.253	0.584	0.645	0.677	0.556	0.512
COR-L 105	–	–	–	–	–	0.507	0.483	0.311	0.215	0.21	0.424	0.467	0.423	0.411	0.451	0.43	0.456	0.491	0.424	0.435
NCI-H520	–	–	–	–	–	0.572	0.408	0.218	0.255	0.281	0.234	0.267	0.374	0.267	0.291	0.646	0.687	0.676	0.688	0.769
SK-LU-1	–	–	–	–	–	0.577	0.321	0.209	0.12	0.151	0.532	0.648	0.514	0.645	0.584	0.454	0.508	0.526	0.437	0.473
NCI-H522	0.945	0.826	0.786	–	0.809	0.525	0.641	0.404	0.446	0.401	–	–	–	–	–	0.811	0.619	0.747	–	0.79
NCI-H1299	–	–	–	–	–	–	–	–	–	–	0.79	0.738	0.839	0.702	0.777	–	–	–	–	–
NCI-H1650	–	–	–	–	–	0.425	0.3	0.166	0.141	0.134	0.569	0.534	0.596	0.547	0.649	0.523	0.591	0.59	0.491	0.585
NCI-H2009	–	–	–	–	–	0.468	0.406	0.233	0.183	0.105	0.812	0.974	0.897	0.781	0.886	0.292	0.245	0.286	0.335	0.265
NCI-H1648	0.639	0.563	0.57	0.66	0.533	–	–	–	–	–	–	–	–	–	–	0.503	0.504	0.369	0.384	0.494
SK-MES-1	–	–	–	–	–	0.704	0.626	0.209	0.162	0.167	0.429	0.384	0.295	0.376	0.318	0.543	0.583	0.489	0.593	0.555
NCI-H2342	0.501	0.435	0.673	0.328	0.462	0.547	0.586	0.649	0.283	0.341	–	–	–	–	–	0.871	0.655	0.909	0.809	0.461
SW 900	0.535	0.645	0.771	0.569	0.761	0.683	0.564	0.493	0.106	0.146	–	–	–	–	–	0.871	1.07	0.66	0.587	1.11
A549	–	–	–	–	–	0.143	0.132	0.0229	0.0377	0.0372	0.469	0.509	0.535	0.529	0.572	–	–	–	–	–
NCI-H661	–	–	–	–	–	0.263	0.224	0.216	0.198	0.206	0.416	0.422	0.422	–	0.508	0.622	0.685	0.589	0.526	0.611
NCI-H1563	–	–	–	–	–	0.719	0.63	0.683	0.525	0.498	0.658	0.66	0.602	0.599	0.665	–	–	–	–	–
ABC-1	0.73	0.726	0.719	0.536	0.72	0.307	0.256	0.222	0.196	0.191	0.638	0.8	0.483	0.678	0.743	–	–	–	–	–
